# Data published in US10946007B2, “4-[2-(2-fluorophenoxymethyl)phenyl]piperidine compounds” (THERAVANCE BIOPHARMA R&D IP, LLC, priority 2008, dated 2021).
# How the values were obtained:
# hSERT = molecular target: T1, hSERT (Homo sapiens, UniProt P31645); assay: hSERT membrane radioligand binding assay (Assay 1, 3H-citalopram); conditions: Assay 1, membranes of HEK-293 cells expressing hSERT; read-out: SERT pKi (converted)
# T1 construct: expressed in transfected cells; host or cells: HEK-293
# Method: (§1) Membrane radioligand binding assays were used to measure competitive inhibition of labeled ligand (^3H-citalopram or ^3H-nisoxetine or ^3H-WIN35428) binding to membranes prepared from cells expressing the respective human recombinant transporter (hSERT or hNET or hDAT) in order to determine the pKi values of test compounds at the transporters.
# (§2) Recombinant human embryonic kidney (HEK-293) derived cell lines stably transfected with hSERT or hNET, respectively, were grown in DMEM medium supplemented with 10% dialyzed FBS (for hSERT) or FBS (for hNET), 100 μg/ml penicillin, 100 μg/ml streptomycin, 2 mM L-glutamine and 250 μg/ml of the aminoglycoside antibiotic G418, in a 5% CO2 humidified incubator at 37° C. When cultures reached 80% confluence, the cells were washed thoroughly in PBS (without Ca^2+ and Mg^2+) and lifted with 5 mM EDTA in PBS. Cells were pelleted by centrifugation, resuspended in lysis buffer (10 mM Tris-HCl, pH7.5 containing 1 mM EDTA), homogenized, pelleted by centrifugation, then resuspended in 50 mM Tris-HCl, pH 7.5 and 10% sucrose at 4° C. Protein concentration of the membrane suspension was determined using a Bio-Rad Bradford Protein Assay kit. Membranes were snap frozen and stored at −80° C. Chinese hamster ovary membranes expressing hDAT (CHO-DAT) were purchased from PerkinElmer and stored at −80° C.
# (§3) Binding assays were performed in a 96-well assay plate in a total volume of 200 μl assay buffer (50 mM Tris-HCl, 120 mM NaCl, 5 mM KCl, pH 7.4) with 0.5, 1, and 3 μg membrane protein, for SERT, NET and DAT, respectively.
# (§4) Stock solutions (10 mM in DMSO) of test compound were prepared and serial dilutions made using Dilution Buffer (50 mM Tris-HCl, 120 mM NaCl, 5 mM KCl, pH 7.4, 0.1% BSA, 400 μM ascorbic acid).
# (§5) Following a 60 minute incubation at 22° C. (or a period sufficient to reach equilibrium), the membranes were harvested by rapid filtration over a 96-well UniFilter GF/B plate, pretreated with 0.3% polyethyleneimine, and washed 6 times with 300 μl wash buffer (50 mM Tris-HCl, 0.9% NaCl, pH 7.5 at 4° C.). Plates were dried overnight at room temperature, 45 μl of MicroScint™-20 (Perkin Elmer) added and bound radioactivity quantitated via liquid scintillation spectroscopy. Competitive inhibition curves and saturation isotherms were analyzed using GraphPad Prism Software package (GraphPad Software, Inc., San Diego, Calif.). IC50 values were generated from concentration response curves using the Sigmoidal Dose Response (variable slope) algorithm in Prism GraphPad.
# hNET = molecular target: T2, hNET (Homo sapiens, UniProt P23975); assay: hNET membrane radioligand binding assay (Assay 1, 3H-nisoxetine); conditions: Assay 1, membranes of HEK-293 cells expressing hNET; read-out: NET pKi (converted)
# T2 construct: expressed in transfected cells; host or cells: HEK-293
# Method: as §1, §2, §3, §4, §5
# T1 sequence (P31645 whole entry): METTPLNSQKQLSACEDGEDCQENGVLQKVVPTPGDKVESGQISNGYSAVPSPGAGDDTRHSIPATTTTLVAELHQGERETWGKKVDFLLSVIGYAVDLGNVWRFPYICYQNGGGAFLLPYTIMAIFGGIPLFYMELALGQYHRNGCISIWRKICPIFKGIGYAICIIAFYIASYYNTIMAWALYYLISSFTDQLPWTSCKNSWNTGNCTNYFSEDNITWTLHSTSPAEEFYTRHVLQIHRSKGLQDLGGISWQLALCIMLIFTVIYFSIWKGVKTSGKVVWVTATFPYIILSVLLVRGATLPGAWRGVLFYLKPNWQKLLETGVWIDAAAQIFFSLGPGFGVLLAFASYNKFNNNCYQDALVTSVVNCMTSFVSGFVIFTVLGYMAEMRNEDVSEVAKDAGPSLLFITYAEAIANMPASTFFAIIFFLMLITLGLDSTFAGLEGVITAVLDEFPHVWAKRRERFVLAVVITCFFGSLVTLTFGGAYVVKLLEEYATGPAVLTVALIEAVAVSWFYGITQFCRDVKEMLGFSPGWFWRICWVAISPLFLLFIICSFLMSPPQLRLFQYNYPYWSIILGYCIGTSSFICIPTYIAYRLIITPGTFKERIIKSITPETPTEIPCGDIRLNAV
# T2 sequence (P23975 whole entry): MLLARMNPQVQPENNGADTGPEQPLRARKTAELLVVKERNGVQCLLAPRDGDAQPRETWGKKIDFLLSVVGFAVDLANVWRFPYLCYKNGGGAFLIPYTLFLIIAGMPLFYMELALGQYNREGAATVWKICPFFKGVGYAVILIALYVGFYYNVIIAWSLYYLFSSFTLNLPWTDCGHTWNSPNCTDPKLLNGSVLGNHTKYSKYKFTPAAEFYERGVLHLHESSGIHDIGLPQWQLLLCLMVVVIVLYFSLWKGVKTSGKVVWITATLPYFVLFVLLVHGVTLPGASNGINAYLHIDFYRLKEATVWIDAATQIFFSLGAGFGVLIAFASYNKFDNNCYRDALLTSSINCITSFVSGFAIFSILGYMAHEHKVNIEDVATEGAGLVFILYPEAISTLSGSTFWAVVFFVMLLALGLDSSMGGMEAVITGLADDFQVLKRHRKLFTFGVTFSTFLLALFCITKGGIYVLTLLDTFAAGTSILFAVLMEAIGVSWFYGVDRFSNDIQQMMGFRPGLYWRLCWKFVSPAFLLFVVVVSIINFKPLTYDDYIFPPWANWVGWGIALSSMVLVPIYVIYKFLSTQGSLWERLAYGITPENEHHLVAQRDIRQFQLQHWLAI
SMILES,Ki (hSERT) [nM],Ki (hNET) [nM]
Fc1ccccc1OCc1ccccc1C1CCNCC1 [Compound 3-1],12.6,5.01
Cc1ccccc1OCc1ccccc1C1CCNCC1 [Compound 2-methyl],1.58,31.6
c1ccc(OCc2ccccc2C2CCNCC2)cc1 [unsubstituted],31.6,39.8
Clc1ccccc1OCc1ccccc1C1CCNCC1 [Compound 2-chloro],3.98,31.6
